Experimental data reported in patent US10954221B2, “GLP-1R agonists and uses thereof” (QILU REGOR THERAPEUTICS INC., priority 2019, dated 2021).

How the values were obtained:
GLP1R [1] = target: T1, GLP1R (Homo sapiens, UniProt P43220); test: β-Arrestin-mediated GLP1R internalization assay (PathHunter U2OS cells); assay type: cell-based; set-up: host or cells: PathHunter engineered U2OS cells; details: averaged Bmax where applicable, Percentage of Control GLP-1 (7-37), top 10 μM, 180 min
Excerpt: A similar assay can also be used to assess the extent of signal attenuation due to GLP-1R internalization (the Internalization Assay). In this assay, activated GLP1R Internalization cells were engineered to co-express an untagged GLP1R, Enzyme Acceptor (EA) tagged β-Arrestin, and a ProLink™ (PK) tag localized to the endosomes. Activation of the GLP1R induces β-Arrestin recruitment, which leads to internalization of the Receptor/Arrestin-EA complex in PK-tagged endosomes. This forces complementation of the two β-galactosidase enzyme fragments (EA and PK) to form a functional enzyme that hydrolyzes substrate to generate a chemiluminescent signal.
Frozen cells were quickly thawed and 10 mL of cell plating medium (provided by the kit) was added to thawed cells. Cells were stored in a 37° C. incubator and kept for approximately 48 hours until ready for the assay.
Reference and test compounds were dissolved in 100% DMSO. […] 5 μL of this solution was added to 20 μL cell medium in assay plate for a final top concentration of 10 μM. Plates were incubated at 37° C. for 180 min.
Following 180 min incubation, detection reagents were made up by combining 1 part Galacton Star Substrate with 5 parts Emerald II™ Solution, and 19 parts of PathHunter Cell Assay Buffer, respectively. 12.5 μL detection reagent was added to each well. The plates were then incubated at room temperature for 60 min. Plates were then read on Envision for 0.1 sec/well.
EC50 determinations were made from agonist dose-response curves analyzed with a curve fitting program using a 4-parameter logistic dose response equation.
Target sequence in this assay (P43220 24-463): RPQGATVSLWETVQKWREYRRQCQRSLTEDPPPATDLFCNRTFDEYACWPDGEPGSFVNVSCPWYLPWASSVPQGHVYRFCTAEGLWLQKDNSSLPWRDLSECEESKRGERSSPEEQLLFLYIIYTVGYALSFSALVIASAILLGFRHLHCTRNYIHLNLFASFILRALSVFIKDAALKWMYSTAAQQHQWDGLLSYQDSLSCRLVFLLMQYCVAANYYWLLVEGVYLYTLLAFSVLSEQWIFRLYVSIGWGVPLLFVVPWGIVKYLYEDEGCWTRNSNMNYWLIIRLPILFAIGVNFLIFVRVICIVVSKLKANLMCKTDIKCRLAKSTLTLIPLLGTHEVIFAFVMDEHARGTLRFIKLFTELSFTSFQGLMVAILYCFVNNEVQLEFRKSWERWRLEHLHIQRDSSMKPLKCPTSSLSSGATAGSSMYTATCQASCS
Target sequence in this assay (P32121 whole entry partner, the tested form may be a part): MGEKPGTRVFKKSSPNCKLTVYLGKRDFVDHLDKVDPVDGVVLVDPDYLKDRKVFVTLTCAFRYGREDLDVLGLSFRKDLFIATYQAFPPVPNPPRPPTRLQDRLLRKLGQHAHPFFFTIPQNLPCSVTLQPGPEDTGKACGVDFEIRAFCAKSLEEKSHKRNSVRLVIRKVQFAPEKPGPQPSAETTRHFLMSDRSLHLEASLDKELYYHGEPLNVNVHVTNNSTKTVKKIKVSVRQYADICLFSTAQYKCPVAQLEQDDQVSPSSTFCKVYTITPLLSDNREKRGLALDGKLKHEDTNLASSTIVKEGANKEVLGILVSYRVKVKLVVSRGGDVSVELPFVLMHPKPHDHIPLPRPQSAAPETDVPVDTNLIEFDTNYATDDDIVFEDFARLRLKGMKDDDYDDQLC

GLP1R [2] = target: T1, GLP1R; test: GLP1R cAMP assay (HTRF), HEK293/GLP-1R/CRE/Luc, Clone 4
Target sequence in this assay (P43220 24-463): as the sequence (P43220 24-463) above
Method: GLP-1R-mediated agonist activity was determined with a cell-based functional assay utilizing an HTRF (Homogeneous Time-Resolved Fluorescence) cAMP detection kit (cAMP Dynamic 2 Assay Kit; CisBio cat #62AM4PEC) that measures cAMP levels in the cell. The method is a competitive immunoassay between native cAMP produced by the cells and exogenous cAMP labeled with the dye d2. The tracer binding is visualized by a mAb anti-cAMP labeled with Cryptate. The specific signal (i.e., energy transfer) is inversely proportional to the concentration of cAMP in either standard or experimental sample.
The human GLP-1R coding sequence (NCBI Reference Sequence NM_002062) was subcloned into pcDNA3.1+/Hygro vector (Invitrogen) and transfected into HEK293/CRE/Luc parental cell line. A cell line stably expressing the receptor was isolated.
Varying concentrations of each compound to be tested (in DMSO) were diluted in DMSO to obtain 200× compound working solution first and then 50 nl compounds were added to a white 384-well assay plate (Greiner 784075) with ECHO. The final DMSO concentration was 0.5%.
Cells were removed from cryopreservation, re-suspended in 5 mL of Dulbecco's Phosphate Buffered Saline (DPBS-Sigma Cat #D8537) and centrifuged at 900×g for 5 min at 22° C. The cell pellet was then re-suspended in 1 mL of assay buffer [DPBS with 500 μM IBMX (Sigma #15879) and 0.1% BSA (Sigma #A1933). IBMX and BSA were freshly added on the day of assay]. A 10 μL sample of the cell suspension was counted on an Invitrogen Countess II to determine cell viability and cell count per mL. The remaining cell suspension was then adjusted with assay buffer to deliver 1000 viable cells per well using a Matrix Combi Multidrop reagent dispenser. 10 μL cell suspensions were added to each well
of the assay plate which already contains compound. The plate was sealed and incubated at 37° C. with 5% CO2 for 30 minutes.
Following the 30 minute incubation, 5 μL of labeled d2 cAMP and 5 μL of anti-cAMP antibody (both diluted 1:20 in cell lysis buffer; as described in the manufacturer's assay protocol) were added to each well of the assay plate. The plates were then incubated at room temperature and after 60 minutes, changes in the HTRF signal were read with an Envision multi-label plate reader using excitation of 330 nm and emissions of 615 and 665 nm. Raw data were converted to nM cAMP by interpolation from a cAMP standard curve (as described in the manufacturer's assay protocol) and the percent effect was determined relative to a saturating concentration of the full agonist GLP-17-37 (10 nM) included on each plate. EC50 determinations were made from agonist dose-response curves analyzed with a curve fitting program using a 4-parameter logistic dose response equation.

GLP1R [3] = target: T1, GLP1R; set-up: Emax: dose or concentration left out as unconfirmed; details: for Emax: CHO-K1, […], read-out: β-arrestin recruitment Bmax (%)
Target sequence in this assay (P43220 24-463): as above
Target sequence in this assay (P32121 whole entry partner, the tested form may be a part): as the sequence (P32121 whole entry partner, the tested form may be a part) above
Method: Frozen cells were quickly thawed and 10 mL of cell plating medium (provided by the kit) was added to thawed cells. Cells were stored in a 37° C. incubator under 5% CO2 and kept for approximately 48 hours until ready to run the assay.
Reference and test compounds were dissolved in 100% DMSO. […] 5 μL of this solution was added to 20 μL cell medium in assay plate for a final top concentration of 10 μM. Plates were then incubated at 37° C. under 5% CO2 for 90 min.
Following 90 min incubation, detection reagents were made up by combining 1 part Galacton Star Substrate with 5 parts Emerald II™ Solution, and 19 parts of PathHunter Cell Assay Buffer, respectively. 12.5 μl detection reagent was added to each well. The plates were then incubated at room temperature in dark for 60 min. Plates were then read on Envision for 0.1 sec/well.
Cells were plated at a density of 1000 or 2000 cells/20 μL/well. Frozen cells were quickly thawed and added to 10 mL of cell plating medium. Cells were stored in a 37 degree incubator under 5% CO2 and left for approximately 48 hours until ready to run the assay
Prepare 10× concentration of an agonist in serum free DMEM, and add all solutions into the compound plate. 2.5 μL of this solution was added to 20 μL cell medium in assay plate for a final top concentration of 10 μM. Plates were incubated at 37° C. under 5% CO2 for 30 min. An additional 2.5 μL of Buffer was added to the entire plate for agonist mode and incubated at 37° C. for another 90 min.
Following 90 min incubation, detection reagents were made up as described. 12.5 μL was added to all wells. The plates were then incubated at room temperature in dark for 60 min. Plates were then read on Envision for 0.1 sec/well.
Data analysis: GraphPad Prism 6 was used for establishment of progression curve. EC50s or IC50s were determined by 4-parameter logistic dose response equation.

| Compound | β-arrestin internalization Bmax (POC) (GLP1R [1]) | EC50 (GLP1R [2]) | Emax (GLP1R [3]) | β-arrestin recruitment Bmax (%) (GLP1R [3]; partial maximum relative effect at the highest concentration tested (top 10 μM), relative to Bmax of GLP-1 (7-37), PathHunter CHO-K1 GLP1R β-Arrestin cells) |
| --- | --- | --- | --- | --- |
| O=C(O)c1ccc2nc(Cc3ccc(-c4cccc(OCc5ccc(Cl)cc5F)n4)cc3F)n(C[C@@H]3CCO3)c2n1 [Compound 281, 2-[[4-[6-[(4-chloro-2-fluoro-phenyl)methoxy]-2-pyridyl]-2-fluoro-phenyl]methyl]-3-[[(2S)-oxetan-2-yl]methyl]imidazo[4,5-b]pyridine-5-carboxylic acid] | 36.5 POC | < 15 nM | 48.5 ± 6.64% | – |
| O=C(O)c1ccc2nc(Cc3ccc(-c4nc(OCc5ccc(Cl)cc5F)ncc4F)c(F)c3)n(C[C@@H]3CCO3)c2c1 [Compound 82, (S)-2-(4-(2-(4-chloro-2-fluorobenzyloxy)-5-fluoropyrimidin-4-yl)-3-fluorobenzyl)-1-(oxetan-2-ylmethyl)-1H-benzo[d]imidazole-6-carboxylic acid] | 13.8 POC | < 15 nM | 20.1% | – |
| O=C(O)c1ccc2nc(Cc3ccc(-c4ccc(F)c(OCc5ccc(Cl)cc5F)n4)cc3F)n(C[C@@H]3CCO3)c2c1 [Compound 88, (S)-2-(4-(6-(4-chloro-2-fluorobenzyloxy)-5-fluoropyridin-2-yl)-2-fluorobenzyl)-1-(oxetan-2-ylmethyl)-1H-benzo[d]imidazole-6-carboxylic acid] | 29.2 POC | < 15 nM | 44.6% | – |
| O=C(O)c1ccc2nc(Cc3ccc(-c4ccc(F)c(OCc5ccc(Cl)cc5F)c4)cc3F)n(C[C@@H]3CCO3)c2c1 [Compound 85] | 29.5 POC | < 15 nM | 37% | – |
| O=C(O)c1ccc2nc(Cc3ccc(-c4cccc(OCc5ccc(Cl)cc5F)n4)cn3)n(C[C@@H]3CCO3)c2c1 [Compound 101, (S)-2-((6-((4-chloro-2-fluorobenzyl)oxy)-[2,3′-bipyridin]-6′-yl)methyl)-1-(oxetan-2-ylmethyl)-1H-benzo[d]imidazole-6-carboxylicacid] | 3.08 POC | > 1000 nM | 1.05% | – |
| O=C(O)c1ccc2nc(Cc3ccc(-c4cccc(OCc5ccc(F)cc5F)n4)c(F)c3)n(C[C@@H]3CCO3)c2n1 [Compound 290, (S)-2-(4-(6-((2,4-difluorobenzyl)oxy)pyridin-2-yl)-3-fluorobenzyl)-3-(oxetan-2-ylmethyl)-3H-imidazo[4,5-b]pyridine-5-carboxylic acid] | 21.6 ± 3.52 POC | < 15 nM | 39.9 ± 4.4% | – |
| O=C(O)c1ccc2nc(Cc3ccc(-c4ncc(F)c(OCc5ccc(Cl)cc5F)n4)cc3F)n(C[C@@H]3CCO3)c2c1 [Compound 90, (S)-2-(4-(4-((4-chloro-2-fluorobenzyl)oxy)-5-fluoropyrimidin-2-yl)-2-fluorobenzyl)-1-(oxetan-2-ylmethyl)-1H-benzo[d]imidazole-6-carboxylic acid] | 21.6 POC | < 15 nM | 29.5 ± 3.21% | – |
| O=C(O)c1ccc2nc(Cc3ccc(-c4ccc(F)c(OCc5ccc(Cl)cc5F)c4)c(F)c3)n(C[C@@H]3CCO3)c2c1 [Compound 78, (S)-2-((3′-((4-chloro-2-fluorobenzyl)oxy)-2,4′-difluoro-[1,1′-biphenyl]-4-yl)methyl)-1-(oxetan-2-ylmethyl)-1H-benzo[d]imidazole-6-carboxylic acid] | 7.49 POC | < 15 nM | 22.7% | – |
| O=C(O)c1ccc2nc(Cc3ccc(-c4cccc(OCc5ccc(Cl)cc5F)n4)c(F)c3)n(C[C@@H]3CCO3)c2c1F [Compound 308, (S)-2-(4-(6-((4-chloro-2-fluorobenzyl)oxy)pyridin-2-yl)-3-fluorobenzyl)-7-fluoro-1-(oxetan-2-ylmethyl)-1H-benzo[d]imidazole-6-carboxylic acid] | 48.8 ± 6.11 POC | < 15 nM | 62.8 ± 4.09% | – |
| O=C(O)c1ccc2nc(Cc3ccc(-c4ccc(F)c(OCc5ccc(F)cc5F)n4)c(F)c3)n(C[C@@H]3CCO3)c2n1 [Compound 267, (S)-2-(4-(6-(2,4-difluorobenzyloxy)-5-fluoropyridin-2-yl)-3-fluorobenzyl)-3-(oxetan-2-ylmethyl)-3H-imidazo[4,5-b]pyridine-5-carboxylic acid] | 30.2 ± 6.53 POC | < 15 nM | 41.7 ± 3.45% | – |
| N#Cc1ccc(COc2ncc(F)c(-c3ccc(Cc4nc5ccc(C(=O)O)nc5n4C[C@@H]4CCO4)c(F)c3)n2)c(F)c1 [Compound 291, (S)-2-(4-(2-((4-cyano-2-fluorobenzyl)oxy)-5-fluoropyrimidin-4-yl)-2-fluorobenzyl)-3-(oxetan-2-ylmethyl)-3H-imidazo[4,5-b]pyridine-5-carboxylic acid] | 22.8 ± 0.142 POC | < 15 nM | 29.4 ± 6.84% | – |
| O=C(O)c1ccc2nc(Cc3ccc(-c4ccc(F)c(OCc5ccc(F)cc5F)n4)cc3F)n(C[C@@H]3CCO3)c2n1 [Compound 277, (S)-2-(4-(6-(2,4-difluorobenzyloxy)-5-fluoropyridin-2-yl)-2-fluorobenzyl)-3-(oxetan-2-ylmethyl)-3H-imidazo[4,5-b]pyridine-5-carboxylic acid] | 23.0 POC | < 15 nM | 39.3 ± 4.96% | – |
| O=C(O)c1ccc2nc(Cc3ccc(-c4nc(OCc5ccc(Cl)cc5F)c(F)cc4F)c(F)c3)n(C[C@@H]3CCO3)c2c1 [Compound 77, (S)-2-(4-(6-((4-chloro-2-fluorobenzyl)oxy)-3,5-difluoropyridin-2-yl)-3-fluorobenzyl)-1-(oxetan-2-ylmethyl)-1H-benzo[d]imidazole-6-carboxylic acid] | 22.5 POC | < 15 nM | 39.4% | – |
| O=C(O)c1ccc2nc(Cc3ccc(-c4ccc(F)c(OCc5ccc(Cl)cc5F)n4)c(F)c3)n(C[C@@H]3CCO3)c2c1 [Compound 83, (S)-2-(4-(6-((4-chloro-2-fluorobenzyl)oxy)-5-fluoropyridin-2-yl)-3-fluorobenzyl)-1-(oxetan-2-ylmethyl)-1H-benzo[d]imidazole-6-carboxylic acid] | 27.8 POC | < 15 nM | 44.6% | – |
| O=C(O)c1ccc2nc(Cc3ccc(-c4cccc(OCc5ccc(Cl)cc5F)n4)cc3)n(C[C@@H]3CCO3)c2c1 [Compound 94, (S)-2-(4-(6-((4-chloro-2-fluorobenzyl)oxy)pyridin-2-yl)benzyl)-1-(oxetan-2-ylmethyl)-1H-benzo[d]imidazole-6-carboxylic acid] | 27.3 ± 7.75 POC | < 15 nM | – | 33.3% |
| O=C(O)c1ccc2nc(Cc3ccc(-c4cccc(OCc5ccc(Cl)cc5F)n4)nc3)n(C[C@@H]3CCO3)c2c1 [Compound 100, (S)-2-((6′-(4-chloro-2-fluorobenzyloxy)-2,2′-bipyridin-5-yl)methyl)-1-(oxetan-2-ylmethyl)-1H-benzo[d]imidazole-6-carboxylic acid] | 0.881 POC | > 1000 nM | 0.971% | – |
| O=C(O)c1ccc2nc(Cc3ccc(-c4nc(OCc5ccc(Cl)cc5F)ncc4F)cc3F)n(C[C@@H]3CCO3)c2c1 [Compound 91, (S)-2-(4-(2-(4-chloro-2-fluorobenzyloxy)-5-fluoropyrimidin-4-yl)-2-fluorobenzyl)-1-(oxetan-2-ylmethyl)-1H-benzo[d]imidazole-6-carboxylic acid] | 21.6 POC | < 15 nM | 35.8% | – |
